Holding throughout (type): cell-based
One test relates to RET (LC2/ad-CDC6). Kind of test: Cancer cell proliferation inhibition, MTS assay, 72 hours. The settings on record: 72 h. As to the method:
(§1) MTS assay was performed to evaluate the cancer cell proliferation inhibition (cancer cell apoptosis) effect of the compounds of examples of the present invention. Particularly, the assay was performed using the cancer cell lines GIST-T1, GIST-T1/816, GIST-430, GIST-430/654, GIST-R1, GIST-R3, M-NFS-60, RetParental (Ba/F3), Retwt (Ba/F3), RetV804M (Ba/F3), RET (LC2/ad-CDC6), FYN (MCP-1), FYN (FN), MDA-MB-231, Huh7, K562, T315I(Ba/F3), SK-MEL-28 and A375. Cell culture was performed using a medium suitable for each cell line.
(§2) Other cell lines were seeded in a 96-well plate containing the corresponding medium appropriate for each cell line at the density of 3,000 cells/well, followed by culture in a 5% CO2 and 37° C. incubator for 24 hours. The compounds of examples of the present invention were added to each well at the concentration of from the highest volume of 50 μM to every step of serial dilution. The solvent control, dimethylsulfoxide (DMSO), was treated at the same concentration of 0.05% (v/v) as the volume used for the treatment of the compounds above. Each cell line was cultured for 72 hours. To investigate the cell viability, the MTS and PMS (phenazine methosulfate) mixture provided in CellTiter 96® AQuous Non-Radioactive Cell Proliferation Assay Kit (Promega) was added to each cell culture medium, followed by additional culture at 37° C. for 2 hours. Then, OD450 was measured. Based on OD of the solvent control cells not treated with any compounds of the present invention, the cell proliferation inhibition rate was calculated according to the treatment concentration of each compound. At this time, the concentration of each compound that was able to inhibit cancer cell proliferation up to 50% was determined as IC50 (uM). IC50 of each compound was determined with three data sets and calculated by using Prism softwater (version 6.01, GraphPad).
A general note: Tetrazolium assays rely on reduction of a dye to a coloured formazan, in cell work by metabolically active cells.

The next test concerns MDA-MB-231. Kind of test: Real time cell proliferation, IncuCyte ZOOM, 72 hours. The following applies: Homo sapiens, MDA-MB-231, 72 h.
The subject of a further test is K562. Kind of test: Cancer cell proliferation inhibition, CCK-8, 72 hours. The settings on record: Homo sapiens, K562, 72 h. As to the method: as §1
(§3) In the meantime, MDA-MB-231 and A375 cells were seeded in a 96well plate at the density of 2×10^3/100 μl/well, which stood for a day for attachment. The culture fluid was eliminated. After removing the culture medium, the medium was replaced with the culture medium containing the compounds of the present invention at 3-times serially diluted 9 concentrations (0.0015-10 μM) and the DMSO control, followed by incubation in a 37° C. CO2 incubator for 72 hours. On the other hand, K-562 and Ba/F3-T315I cells were seeded in a 96-well plate at the density of 1×10^4/90 μl/well. The plate containing K-562 cells was added with the culture medium containing the compounds of the present invention at 3-times serially diluted 9 concentrations (0.015-100 μM) and the DMSO control (10 μl/well). The plate containing Ba/F3-T315I cells was added with the culture medium containing the compounds of the present invention at 5-times serially diluted 9 concentrations (0.000256-100 μM) and the DMSO control (10 μl/well). The final concentration was made 0-10 μM and then the cells were cultured in a 37° C. CO2 incubator for 72 hours.
(§4) A375, K-562 and Ba/F3-T315I cells were added with CCK-8 solution at the concentration of 10 μl/well, followed by orbital shaking for 30 seconds. Then, the cells were cultured in a 37° C. CO2 incubator for 2 hours. OD450 was measured by using a microplate reader. The OD value of the well treated with the culture medium and CCK-8 solution alone was subtracted from the OD value measured above, followed by calculation of IC50 using GraphPad Prism 6 software.

The test system of the next test is A375. The test is described as above. The following applies: Homo sapiens, A-375, 72 h. As to the method:
as §1, §3, §4

In a further test the target is T1, T315I (Ba/F3) (Homo sapiens, UniProt P00519, T315I, cells depend on it).
T1 construct: fused on or other part: P11274 (Breakpoint cluster region protein)
The description is as above. The following applies: read-out: T315I (Ba/F3) IC50. As to the method:
as §1, §3, §4

A further test concerns M-NFS-60. The test is described as above. As to the method:
as §1
M-NFS-60 cell line was cultured in the complete growth medium prepared by adding 10% FBS, 0.05 mM 2-mercaptoethanol and 62 ng of human M-CSF to RPMI. When the confluence reached 80% in T-75 flask, the cells were collected in a 50 ml tube for seeding, followed by centrifugation at 800 rpm for 5 minutes. The cells were suspended in 10 mL of growth medium. The cell number was counted by using a hematocytometer to determine the necessary cell number and the medium volume for seeding. The cells were seeded in a 96-well plate at the density of 20000 cells/well (200 μL/well), followed by stabilization in a 37° C. CO2 incubator, while the compounds of the present invention were prepared. The compounds of the present invention were serially diluted with DMSO at the ratio of 1/3 with setting the maximum concentration at 1968 nM, which were loaded in a new V-bottom 96-well plate, resulting in the preparation of total 11 concentrations including the DMSO control. The cells that had been placed in the incubator were taken out, to which the compounds of the present invention were added (2 μl/well). The plate treated with the compounds was cultured in a 37° C. CO2 incubator for 72 hours. 72 hours later, the plate treated with the compounds was taken out, to which CCK-8 solution was treated (20 μl/well). After well mixing, the plate was further cultured in a 37° C. CO2 incubator for 2 hours. Then, OD450 was measured by using a microplate reader. To obtain accurate results, the wells displaying bubbles were eliminated from the measurement.

A further test has as its system Huh7. Kind of test: Cancer cell proliferation inhibition, MTS assay, 72 hours. The following applies: Homo sapiens, Huh-7. As to the method: as §1, §2

Each structure is given as a SMILES string.

Usually IC50 stands for the concentration that gives 50% inhibition. A low value points to higher potency. As for `Cc1ccc(C(=O)Nc2ccc(Cl)c(C(F)(F)F)c2)cc1C#Cc1cnc2c(Nc3cnn(C4CCNCC4)c3)cccn12` [Example 63, N-(4-chloro-3-(trifluoromethyl)phenyl)-4-methyl-3-((8-((1-(piperidin-4-yl)-1H-pyrazol-4-yl)amino)imidazo[1,2-a]pyridin-3-yl)ethynyl)benzamide], the half-inhibitory concentration (IC50) in the test on RET (LC2/ad-CDC6) was over 10 nM; with MDA-MB-231, 1410 nM; in the test with K562, under 1 nM; with A375, 1330 nM; in the test with M-NFS-60, 71 nM. Also, the GI50 at T315I (Ba/F3) is 374 nM.
On to `COCCCn1cc(Nc2cccn3c(C#Cc4cc(C(=O)Nc5ccc(CN6CCN(C)[C@H](C)C6)c(C(F)(F)F)c5)ccc4C)cnc23)cn1` [Example 42, (R)—N-(4-((3,4-dimethylpiperazin-1-yl)methyl)-3-(trifluoromethyl)phenyl)-3-((8-((1-(3-methoxypropyl)-1H-pyrazol-4-yl)amino)imidazo[1,2-a]pyridin-3-yl)ethynyl)-4-methylbenzamide], for which the 50% inhibitory concentration (IC50) is over 10 nM in the test with RET (LC2/ad-CDC6); 100 nM with Huh7; 320 nM in the test on MDA-MB-231; 8 nM in the test with K562; 163 nM in the test on A375. The GI50 on T315I (Ba/F3) was 122 nM.
With `Cc1ccc(C(=O)Nc2ccc3cccnc3c2)cc1C#Cc1cnc2c(Nc3cnn(C)c3)cccn12` [Example 36, 4-methyl-3-((8-((1-methyl-1H-pyrazol-4-yl)amino)imidazo[1,2-a]pyridin-3-yl)ethynyl)-N-(quinolin-7-yl)benzamide], the IC50 was 145 nM in the test with Huh7; over 10000 nM with MDA-MB-231; 6 nM with K562; over 10000 nM in the test on A375; 7.76 nM in the test with M-NFS-60. The GI50 on T315I (Ba/F3) is over 10000 nM.
As for `COCCCn1cc(Nc2cccn3c(C#Cc4cc(C(=O)Nc5ccc(CN6CCC(N(C)C)C6)c(C(F)(F)F)c5)ccc4C)cnc23)cn1` (stereo not shown) [Example 43, N-(4-((3-(dimethylamino)pyrrolidin-1-yl)methyl)-3-(trifluoromethyl)phenyl)-3-((8-((1-(3-methoxypropyl)-1H-pyrazol-4-yl)amino)imidazo[1,2-a]pyridin-3-yl)ethynyl)-4-methylbenzamide], the IC50 with RET (LC2/ad-CDC6) is over 10 nM; in the test on Huh7, 98 nM; in the test with MDA-MB-231, 190 nM; with K562 it was 16 nM; in the test on A375, 341 nM. On T315I (Ba/F3), the GI50 worked out at 59.7 nM.
`Cc1ccc(C(=O)Nc2cccc(C(F)(F)F)c2)cc1C#Cc1cnc2c(Nc3cc4n(n3)CCNC4)cccn12` [Example 67, 4-methyl-3-((8-((4,5,6,7-tetrahydropyrazolo[1,5-a]pyrazin-2-yl)amino)imidazo[1,2-a]pyridin-3-yl)ethynyl)-N-(3-(trifluoromethyl)phenyl)benzamide]: the IC50 is 919 nM in the test with Huh7, 429 nM in the test with MDA-MB-231, under 1.5 nM in the test with K562 and 19.4 nM with M-NFS-60. For the same molecule, the GI50 at T315I (Ba/F3) worked out at 40.1 nM.
For the molecule `COCCCn1cc(Nc2cccn3c(C#Cc4cc(C(=O)Nc5ccc(CN6CCN(C)CC6)c(C(F)(F)F)c5)ccc4C)cnc23)cn1` [Example 65], the IC50 with RET (LC2/ad-CDC6) was over 10 nM; in the test with Huh7, 33 nM; in the test with MDA-MB-231, 219 nM; in the test with K562, under 1.5 nM; with A375, 221 nM.
For the molecule `Cc1ccc(C(=O)Nc2cccc(C(F)(F)F)c2)cc1C#Cc1cnc2c(Nc3cnn(CCN(C)C)c3)cccn12` [Example 74], the results for the 50% inhibitory concentration (IC50) in the test with MDA-MB-231, in the test on K562 and with M-NFS-60 were 1120 nM, under 1.5 nM and 21.4 nM, respectively. Moreover, the GI50 on T315I (Ba/F3) turned out to be 93.1 nM.
As to `Cc1ccc(C(=O)Nc2ccc(CN3CCN(C)[C@@H](C)C3)c(C(F)(F)F)c2)cc1C#Cc1cnc2c(Nc3cnn(C)c3)cccn12` [Example 47, (S)—N-(4-((3,4-dimethylpiperazin-1-yl)methyl)-3-(trifluoromethyl)phenyl)-4-methyl-3-((8-((1-methyl-1H-pyrazol-4-yl)amino)imidazo[1,2-a]pyridin-3-yl)ethynyl)benzamide], the IC50 with RET (LC2/ad-CDC6) is over 10 nM; in the test on MDA-MB-231, 168 nM; in the test on K562 it was under 1 nM; with A375 it was 152 nM; in the test on M-NFS-60, 43.8 nM. In addition, the GI50 at T315I (Ba/F3) was 25 nM.
For the molecule `Cc1ccc(C(=O)Nc2ccc(CN3CCN(C)CC3)c(C(F)(F)F)c2)cc1C#Cc1cnc2c(Nc3cc4n(n3)CCNC4)cccn12` [Example 66, 4-methyl-N-(4-((4-methylpiperazin-1-yl)methyl)-3-(trifluoromethyl)phenyl)-3-((8-((4,5,6,7-tetrahydropyrazolo[1,5-a]pyrazin-2-yl)amino)imidazo[1,2-a]pyridin-3-yl)ethynyl)benzamide], the IC50 was 386 nM in the test on MDA-MB-231, under 1.5 nM in the test on K562 and 62.7 nM with M-NFS-60. On T315I (Ba/F3), the GI50 came out at 170 nM.
Consider `COCCn1cc(Nc2cccn3c(C#Cc4cc(C(=O)Nc5cccc(C(F)(F)F)c5)ccc4C)cnc23)cn1` [Example 70], for which the IC50 with Huh7 is 848 nM; in the test on MDA-MB-231, 1160 nM; with K562, under 1.5 nM; in the test with M-NFS-60, 12.3 nM. The GI50 at T315I (Ba/F3) came to 26.1 nM.
Turning to `COCCn1cc(Nc2cccn3c(C#Cc4cc(C(=O)Nc5ccc(CN6CCN(C)[C@H](C)C6)c(C(F)(F)F)c5)ccc4C)cnc23)cn1` [Example 40, (R)—N-(4-((3,4-dimethylpiperazin-1-yl)methyl)-3-(trifluoromethyl)phenyl)-3-((8-((1-(2-methoxyethyl)-1H-pyrazol-4-yl)amino)imidazo[1,2-a]pyridin-3-yl)ethynyl)-4-methylbenzamide], the IC50 came out at 10 nM with RET (LC2/ad-CDC6); 101 nM with Huh7; 230 nM in the test with MDA-MB-231; 8 nM in the test with K562; 97 nM in the test on A375. For the same molecule, on T315I (Ba/F3), the GI50 stood at 33.5 nM.
Regarding `CCn1cc(Nc2cccn3c(C#Cc4cc(C(=O)Nc5ccc(N6CCOCC6)c(F)c5)ccc4C)cnc23)cn1` [Example 56, 3-((8-((1-ethyl-1H-pyrazol-4-yl)amino)imidazo[1,2-a]pyridin-3-yl)ethynyl)-N-(3-fluoro-4-morpholinophenyl)-4-methylbenzamide], the IC50 with RET (LC2/ad-CDC6) was over 10 nM; in the test on MDA-MB-231, over 10000 nM; in the test on K562 it was under 1 nM; with A375, over 10000 nM. Moreover, at T315I (Ba/F3), the GI50 was 1140 nM.

Source of the values: patent publication US10870647B2, “Imidazopyridine derivative, method for preparing same, and pharmaceutical composition containing same as active ingredient for preventing or treating cancer” (DAEGU-GYEONGBUK MEDICAL INNOVATION FOUNDATION, priority 2016, dated 2020).
